# According to patent US20160332971A1, “ARYLQUINOLINE, ARYLQUINOLONE AND ARYLTHIOQUINOLONE DERIVATIVES AND USE THEREOF TO TREAT CANCER” (UNIVERSITY OF KENTUCKY RESEARCH FOUNDATION, priority 2015, published 2016):
# How the values were obtained:
# [1] = test system: Par-4 secretion from mouse fibroblasts; experiment: Par-4 secretion into conditioned medium, quantitative Western blot normalised to CollA1; format: cell-based; details: for Relative Levels of Par-4 Secretion by Arylquins Administered at 500 nM: 24 h, mouse fibroblasts, CM; for Par-4 secretory activity (in words): SAR discussion; for Par-4 secretory activity (in words) / Ratio of Par-4 Secretion by Arylquin 1 Relative to Vehicle: 500 nM
# Description: Calibration curve developed using fixed amounts (0.05-5 ng) of recombinant TRX-Par-4. […] Therefore the concentration was 0.82 ng/40 μL or 540 pM, In the same fashion, calculation for Par-4 concentration using vehicle (v) was 280 pM.
# Biological activity of 3-Arylquinolines. […] After 24 h exposure, the CM and lysates were subjected to quantitative Western blot analysis for Par-4 and collagen (CollA1).
# Co-immunoprecipitation and Western blot analysis. Protein extracted from cell lysates was filtered, pre-cleared with 25 μL (bed volume) of protein G-Sepharose beads and immunoprecipitated with 1 μg of respective antibodies. The eluted proteins were resolved by SDS-PAGE, and subjected to Western blot analysis as described previously. Bensch, et al. Nature 1968, 218(5147):1176-1177.
# Statistical analyses. All experiments were performed in triplicate to verify the reproducibility of the findings. […] Statistical analyses were carried out with Statistical Analysis System software (SAS Institute, Cary, N.C.) and P values were calculated using the Student t test.
# hERG potassium channel = hERG potassium channel (Homo sapiens, UniProt Q12809)
# Chain of hERG potassium channel (Q12809 whole entry): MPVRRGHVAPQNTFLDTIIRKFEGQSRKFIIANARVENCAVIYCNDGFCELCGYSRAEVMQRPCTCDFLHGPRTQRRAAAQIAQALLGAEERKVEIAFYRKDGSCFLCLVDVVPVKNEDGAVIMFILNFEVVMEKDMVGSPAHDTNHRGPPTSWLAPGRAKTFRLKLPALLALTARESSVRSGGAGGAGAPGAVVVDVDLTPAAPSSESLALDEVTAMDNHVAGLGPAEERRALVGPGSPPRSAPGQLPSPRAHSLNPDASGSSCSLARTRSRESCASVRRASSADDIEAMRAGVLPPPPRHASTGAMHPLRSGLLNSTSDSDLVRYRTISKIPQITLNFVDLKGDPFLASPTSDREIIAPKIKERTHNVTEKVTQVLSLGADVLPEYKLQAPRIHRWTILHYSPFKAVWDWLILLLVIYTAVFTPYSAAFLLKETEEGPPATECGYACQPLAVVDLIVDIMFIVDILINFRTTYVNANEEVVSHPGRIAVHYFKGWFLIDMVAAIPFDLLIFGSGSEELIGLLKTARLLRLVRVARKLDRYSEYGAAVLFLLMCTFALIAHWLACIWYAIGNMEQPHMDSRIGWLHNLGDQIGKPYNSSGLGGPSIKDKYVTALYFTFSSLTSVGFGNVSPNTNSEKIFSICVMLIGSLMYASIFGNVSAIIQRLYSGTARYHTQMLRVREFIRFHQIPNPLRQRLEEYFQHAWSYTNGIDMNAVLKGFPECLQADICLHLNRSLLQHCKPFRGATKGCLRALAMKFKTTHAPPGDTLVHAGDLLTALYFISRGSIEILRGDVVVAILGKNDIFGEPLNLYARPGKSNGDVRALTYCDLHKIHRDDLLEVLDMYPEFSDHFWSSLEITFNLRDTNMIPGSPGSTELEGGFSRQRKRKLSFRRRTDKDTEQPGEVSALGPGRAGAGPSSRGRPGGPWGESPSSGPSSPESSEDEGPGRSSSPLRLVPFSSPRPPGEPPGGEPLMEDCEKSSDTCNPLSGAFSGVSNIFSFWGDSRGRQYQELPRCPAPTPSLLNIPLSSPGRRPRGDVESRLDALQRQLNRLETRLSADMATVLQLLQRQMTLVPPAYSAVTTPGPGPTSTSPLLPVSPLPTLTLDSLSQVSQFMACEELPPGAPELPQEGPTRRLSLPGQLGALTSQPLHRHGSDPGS
# Text: hERG Binding studies, An HEK-293 cell line stably expressing the hERG potassium channel (accession number U04270) referred to as hERG-HEK cells were received at passage 11 (P11) from Millipore (CYL3006, lot 2, Billerica, Mass.). [^3H]-Dofetilide (specific activity of 80 Ci/mmol; labeled on the N-methyl group) was obtained from American Radiolabeled Chemicals (St. Louis, Mo.). Other chemicals and solvents were obtained from Sigma-Aldrich (Milwaukee, Wis.). Polyethylenimine (PEI) was obtained from Fluka/Sigma-Aldrich (St. Louis, Mo.), and Minimium Essential Medium (MEM) with GlutaMAX™ and phenol red, MEM non-essential amino acids solution (NEAA, 100×), G418 disulfate salt solution, fetal bovine serum (FBS), 0.05% Trypsin-EDTA 1× with phenol red, and Hank's balanced salt solution (HBSS) were obtained from Life Technologies (Carlsbad, Calif.).
# hERG-HEK Cell culture. hERG-FIEK Cells were cultured according to the protocol provided by Millipore. Cells were maintained in MEM (with glutamax and phenol red) supplemented with 10% […], 1% NEAA and […], and incubated at 37 ° C. in a humidified atmosphere with 5% CO2. Frozen aliquots of cells were transferred into T-75 cm^2 flasks and allowed to adhere for 4-8 h. The medium was replaced every 2 days. Passages were carried out at least 3 times after thawing at 6 day intervals. Cells were dissociated with trypsin/EDTA and seeded into new 150×25 mm dishes at 2-3×10^6 cells per dish and placed at 30° C., 5% CO2, for 40-48 h prior to membrane preparation. Membrane preparation occurred 6 days after the last passage (passage 20).
# Membrane preparation. Cell membrane preparation was based on previous methods. See Herrmann, et al. J Mol Biol 1996, 264:933-953; Lavie, et al. J Org Chem 1965, 30(6):1774-1778; Chen, et al. A Practical Guide to Assay Development and High-throughput Screening in Drug Discovery, CRC Press Taylor and Francis Group, Boca Raton, Fla., 2010; Redfern, et al. Cardiovasc Res 2003, 58, 32-45. Cells were rinsed twice with HBSS at 37° C. and collected by scraping the dishes in 20 mL of ice-cold 0.32 M sucrose and homogenized on ice with a Teflon pestle using a Maximal Digital homogenizer (Fisher Scientific, Pittsburgh, Pa.) at 280 rpm for 30 sec. Homogenates were centrifuged at 300 g and 800 g for 4 min each at 4° C. Pellets were resuspended in 9 mL of ice-cold Milli-Q water and osmolarity restored by addition of 1 mL of 500 mM Tris buffer (pH 7.4) followed by suspension and centrifugation at 20,000 g for 30 min at 4° C. Pellets were homogenized in 2 mL assay buffer (50 mM Tris, 10 mM KCl, and 1 mM MgCl2, 4° C.) and aliquots of cell membrane suspensions were stored at −80° C. and thawed the day of the [^3H]-dofetilide binding assay. Protein content was determined prior to the assay using a Bradford protein assay with bovine albumin as the standard.
# [^3H]-Dofetilide binding assay. [^3H]-Dofetilide binding assays using hERG-HEK293 cell membranes were based on previous methods. Redfern, et al. Cardiovasc Res 2003, 58, 32-45. Assays determining concentration-response were conducted in duplicate, and three independent assays were performed for each analog evaluated. […] Radioactivity was determined by liquid scintillation spectrometry using the Tri-Carb 2100-TR Liquid Scintillation Analyzer (Perkin-Elmer Life and Analytical Sciences) […]
Compound,Relative Levels of Par-4 Secretion by Arylquins Administered at 500 nM ([1]; Table 1),Par-4 secretory activity (in words) [1],IC50 (hERG potassium channel) [µM],Ratio of Par-4 Secretion by Arylquin 1 Relative to Vehicle ([1]; Table 2),Relative Levels of Par-4 Secretion by Arylquins Administered at 500 nM ([1]; Table 2)
CN(C)c1ccc2cc(-c3cccc(F)c3)c(N)nc2c1 [Arylquin 1d],66.8 ± 10.9,weakly active,1.59 ± 0.39,–,–
CN(C)c1ccc2cc(-c3ccc(F)cc3)c(N)nc2c1 [Arylquin 1f],12.3 ± 2.0,weakly active,30.2 ± 10.3,–,–
CN(C)c1ccc2cc(-c3ccccc3F)c(=S)[nH]c2c1 [Arylquin 10],–,diminished Par-4 secretory activity relative to arylquinoline 1a,> 100,1.7,51.7 ± 4.9
"CN(C)c1ccc2cc(-c3ccccc3F)c(N3CCOCC3)nc2c1 [Arylquin 13a, 3-(2-Fluorophenyl)-NA-dimethyl-2-morpholinoquinolin-7-amine]",–,diminished activity to varying degrees,23.3 ± 3.05,1.8,54.4 ± 2.8
Nc1nc2ccccc2cc1-c1ccccc1F [Arylquin 15a],–,decreased Par-4 secretory activity only slightly,14.6 ± 5.82,2.8,82.1 ± 21.2
